Reference: patent US12180192B2, “Modulators of THR-β and methods of use thereof” (ALIGOS THERAPEUTICS, INC., priority 2019, dated 2024)
Like-named read-outs stand apart in the source and are kept apart here.

Experiments:
[1] = biological target: T1, human thyroid receptor alpha ligand-binding domain (LBD) (Homo sapiens, UniProt P10827); test: TR-FRET thyroid receptor alpha coactivator assay (THR biochemical assay, Assay 1); settings: for EC50: Table 4, THR-alpha, read-out: Activity category Assay 1 (EC50, THR-alpha agonist activity); for Emax / Activity category Assay 1 THRα (Emax): Table 5, THRα; for Emax: read-out: Activity category Assay 1 THRα (Emax)
T1 construct: purchased Invitrogen
Summary of the method: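 GST-tagged human TRβ or TRα LBD, 1 nM final (stated for β), with fluorescein-SRC2-2 coactivator peptide (200 nM) and Tb-anti-GST antibody (2 nM). Agonists serially diluted, 1% DMSO final. 1 h incubation at rt in the dark; TR-FRET read as rise in fluorescein and drop in terbium emission.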

[2] = biological target: T2, THR beta (Homo sapiens, UniProt P10828); test: HEK293T THR beta/RXR luciferase reporter assay (Assay 2); format: cell-based; settings: for Emax: HEK-293T
T2 construct: expressed in transfected cells; host or cells: HEK293T (ATCC CRL-3216)
T2 sequence (P10828 1-461): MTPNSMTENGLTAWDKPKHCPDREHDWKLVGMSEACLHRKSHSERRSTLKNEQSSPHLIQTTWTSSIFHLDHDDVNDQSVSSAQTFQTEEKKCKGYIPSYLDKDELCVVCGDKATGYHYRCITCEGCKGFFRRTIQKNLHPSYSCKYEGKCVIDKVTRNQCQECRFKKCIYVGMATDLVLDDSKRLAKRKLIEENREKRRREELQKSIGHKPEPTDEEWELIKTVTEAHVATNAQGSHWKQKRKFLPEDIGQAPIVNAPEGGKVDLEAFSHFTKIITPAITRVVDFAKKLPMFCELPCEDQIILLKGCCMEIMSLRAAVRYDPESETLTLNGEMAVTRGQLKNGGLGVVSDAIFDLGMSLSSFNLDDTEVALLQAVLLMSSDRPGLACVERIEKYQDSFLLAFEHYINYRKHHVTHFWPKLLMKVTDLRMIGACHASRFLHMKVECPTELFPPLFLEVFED
T2 sequence (P19793 1-462 partner): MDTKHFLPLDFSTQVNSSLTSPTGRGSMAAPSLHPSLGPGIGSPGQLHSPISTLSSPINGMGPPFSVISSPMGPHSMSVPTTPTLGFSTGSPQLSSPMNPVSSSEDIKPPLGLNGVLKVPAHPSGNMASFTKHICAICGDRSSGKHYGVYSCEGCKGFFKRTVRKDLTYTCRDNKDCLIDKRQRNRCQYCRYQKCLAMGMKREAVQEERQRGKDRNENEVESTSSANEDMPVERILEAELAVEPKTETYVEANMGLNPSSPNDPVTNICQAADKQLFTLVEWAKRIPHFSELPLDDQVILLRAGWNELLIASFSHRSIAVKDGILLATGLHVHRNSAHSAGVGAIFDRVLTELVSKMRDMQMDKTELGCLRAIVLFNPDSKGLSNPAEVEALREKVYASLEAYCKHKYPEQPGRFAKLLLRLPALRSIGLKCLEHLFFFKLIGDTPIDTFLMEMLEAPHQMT
Summary of the method: (§1)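 HEK293T cells transiently transfected with TRE-luciferase reporter, RXR, and THR alpha or THR beta plasmid; ten five-fold compound dilutions from DMSO added for 18-24 h. One-Glo luminescence read; percent agonism normalized between negative and positive controls.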

[3] = biological target: T3, THR alpha (Homo sapiens, UniProt P10827); test: HEK293T THR alpha/RXR luciferase reporter assay (Assay 2); format: cell-based; settings: for Emax: HEK-293T
T3 construct: expressed in transfected cells; host or cells: HEK293T (ATCC CRL-3216)
T3 sequence (P10827 1-410 isoform P10827-2): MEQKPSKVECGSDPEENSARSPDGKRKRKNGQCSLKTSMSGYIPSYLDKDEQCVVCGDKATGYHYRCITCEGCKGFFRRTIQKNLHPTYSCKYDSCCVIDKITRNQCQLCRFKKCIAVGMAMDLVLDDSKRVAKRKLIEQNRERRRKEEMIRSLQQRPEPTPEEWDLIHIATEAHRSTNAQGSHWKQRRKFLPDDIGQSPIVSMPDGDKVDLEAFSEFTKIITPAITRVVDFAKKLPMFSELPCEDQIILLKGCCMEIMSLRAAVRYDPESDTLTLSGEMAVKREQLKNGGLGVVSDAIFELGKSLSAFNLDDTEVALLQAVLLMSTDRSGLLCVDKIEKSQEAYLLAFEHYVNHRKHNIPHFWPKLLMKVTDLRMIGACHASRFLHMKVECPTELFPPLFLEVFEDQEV
T3 sequence (P19793 1-462 partner): T2 sequence (P19793 1-462 partner)
Summary of the method: as §1

[4] = Table 5, Assay 2, THRβ, read-out: Activity category Assay 2 THRβ (Emax)
[5] = Table 5, Assay 2, THRα, read-out: Activity category Assay 2 THRα (Emax)
[6] = Table 4, THR-alpha, Assay 2, read-out: Activity category Assay 2 (EC50, THR-alpha agonist activity)
[7] = THR-beta, HEK293T reporter assay, read-out: Activity category Assay 2 (EC50, THR-beta agonist)

| Compound | EC50 [1] [nM] | Emax [1] [%] | Emax [2, 4] [%] | Emax [3, 5] [%] | EC50 [3, 6] [nM] | EC50 [2, 7] [nM] | EC50 ([2]; HEK293T reporter THRbeta/RXR, read-out: EC50 β) [nM] | Emax ([2]; HEK293T reporter THRbeta/RXR, read-out: percent in parentheses below EC50 β (percent agonism / Emax)) [%] | EC50 ([3]; HEK293T reporter THRalpha/RXR, read-out: EC50 α) [nM] | Emax ([3]; HEK293T reporter THRalpha/RXR, read-out: percent in parentheses below EC50 α (percent agonism / Emax)) [%] | Activity category Assay 1 THRα (Emax) [1] | Activity category Assay 2 THRβ (Emax) ([2]; Table 5, Assay 2, THRβ) | Activity category Assay 2 THRα (Emax) ([3]; Table 5, Assay 2, THRα) |
| --- | --- | --- | --- | --- | --- | --- | --- | --- | --- | --- | --- | --- | --- |
| CC1(C)CC(c2cc(Oc3c(Cl)cc(-n4nc(N)c(=O)[nH]c4=O)cc3Cl)n[nH]c2=O)C1 [Compound 89, 6-Amino-2-(3,5-dichloro-4-((5-(3,3-dimethylcyclobutyl)-6-oxo-1,6-dihydropyridazin-3-yl)oxy)phenyl)-1,2,4-triazine-3,5(2H,4H)-dione] | 250 to 1000 | < 50 | 50 to 75 | < 50 | 1000 to 10000 |  |  |  |  |  |  |  |  |
| Nc1nn(-c2cc(Cl)c(Oc3cc(-c4ccc5c(c4)CCCO5)c(=O)[nH]n3)c(Cl)c2)c(=O)[nH]c1=O [Compound 114] | > 25000 | < 50 | < 50 | < 50 | > 10000 | 250 to 1000 |  |  |  |  |  |  |  |
| CC(C)Nc1n[nH]c2ccc(Oc3c(Cl)cc(-n4nc(C#N)c(=O)[nH]c4=O)cc3Cl)cc12 [Compound 145, 2-(3,5-dichloro-4-((3-(isopropylamino)-1H-indazol-5-yl)oxy)phenyl)-3,5-dioxo-2,3,4,5-tetrahydro-1,2,4-triazine-6-carbonitrile] | < 50 | 50 to 75 | 50 to 75 | 50 to 75 | 1000 to 10000 | 1000 to 10000 |  |  |  |  |  |  |  |
| CC(C)c1n[nH]c2nnc(Oc3c(Cl)cc(-n4nc(C#N)c(=O)[nH]c4=O)cc3Cl)cc12 [Compound 75A, 2-(3,5-Dichloro-4-((3-isopropyl-1H-pyrazolo[3,4-c]pyridazin-5-yl)oxy)phenyl)-3,5-dioxo-2,3,4,5-tetrahydro-1,2,4-triazine-6-carbonitrile] | 50 to 250 | < 50 | 50 to 75 | < 50 | > 10000 |  |  |  |  |  |  |  |  |
| Cc1cc(-n2nc(N)c(=O)[nH]c2=O)cc(C)c1Cc1ccc2c(c1)C1(CC1)C(=O)N2 [Compound 151, 6-Amino-2-(3,5-dimethyl-4-((2′-oxospiro[cyclopropane-1,3′-indolin]-5′-yl)methyl)phenyl)-1,2,4-triazine-3,5(2H,4H)-dione] | < 50 | > 75 | 50 to 75 | 50 to 75 | < 50 | < 50 |  |  |  |  |  |  |  |
| Nc1nn(-c2cc(Cl)c(Oc3cc(C4CCC4)c(=O)[nH]n3)c(Cl)c2)c(=O)[nH]c1=O [Compound 40, 6-amino-2-[3,5-dichloro-4-[(5-cyclobutyl-6-oxo-1H-pyridazin-3-yl)oxy]phenyl]-4H-1,2,4-triazine-3,5-dione] | 50 to 250 | 50 to 75 | > 75 | > 75 | 250 to 1000 | 50 to 250 | 58 | 92 | 564 | 95 |  |  |  |
| Nc1nn(-c2cc(Cl)c(Oc3cc(C4CC5(CC5)C4)c(=O)[nH]n3)c(Cl)c2)c(=O)[nH]c1=O [Compound 93] | 250 to 1000 | < 50 | 50 to 75 | < 50 | 1000 to 10000 | 250 to 1000 |  |  |  |  |  |  |  |
| CC(c1ccccc1)c1cc(Oc2c(Cl)cc(-n3nc(N)c(=O)[nH]c3=O)cc2Cl)n[nH]c1=O (single isomer, unassigned) [Compound 164, 6-Amino-2-(3,5-dichloro-4-((6-oxo-5-(1-phenylethyl)-1,6-dihydropyridazin-3-yl)oxy)phenyl)-1,2,4-triazine-3,5(2H,4H)-dione] | 50 to 250 |  | > 75 | 50 to 75 | 250 to 1000 |  |  |  |  |  | C (Emax<50%) |  |  |
| Nc1nn(-c2cc(Cl)c(Oc3n[nH]c(=O)cc3-c3ccc4c(c3)CCCO4)c(Cl)c2)c(=O)[nH]c1=O [Compound 115] | > 25000 | < 50 | < 50 | < 50 | > 10000 | 250 to 1000 |  |  |  |  |  |  |  |
| Cc1cc(-n2nc(N)c(=O)[nH]c2=O)cc(C)c1Cc1cc2c(C(C)C)c[nH]c2cn1 [Compound 157, 6-amino-2-[4-[(3-isopropyl-1H-pyrrolo[2,3-c]pyridin-5-yl)methyl]-3,5-dimethyl-phenyl]-1,2,4-triazine-3,5-dione] | 250 to 1000 | 50 to 75 | > 75 | 50 to 75 | 50 to 250 | < 50 |  |  |  |  |  |  |  |
| Nc1nn(-c2cc(Cl)c(Oc3cc(C4Cc5ccccc54)c(=O)[nH]n3)c(Cl)c2)c(=O)[nH]c1=O (stereo not drawn) [Compound 158] | 250 to 1000 | < 50 | 50 to 75 | < 50 | 1000 to 10000 | 50 to 250 |  |  |  |  |  |  |  |
| Cc1cccc(-c2cc(Oc3c(Cl)cc(-n4nc(N)c(=O)[nH]c4=O)cc3Cl)n[nH]c2=O)c1 [Compound 70, 6-Amino-2-(3,5-dichloro-4-((6-oxo-5-(m-tolyl)-1,6-dihydropyridazin-3-yl)oxy)phenyl)-1,2,4-triazine-3,5(2H,4H)-dione] | 50 to 250 | < 50 | > 75 | 50 to 75 | 50 to 250 | < 50 |  |  |  |  |  |  |  |
| Nc1nn(-c2cc(Cl)c(Oc3n[nH]c(=O)cc3-c3ccc4c(c3)CCCC4)c(Cl)c2)c(=O)[nH]c1=O [Compound 72-A, 6-amino-2-(3,5-dichloro-4-[[6-oxo-4-(5,6,7,8-tetrahydronaphthalen-2-yl)-1H-pyridazin-3-yl]oxy]phenyl)-4H-1,2,4-triazine-3,5-dione] | 50 to 250 | < 50 | 50 to 75 | < 50 | > 10000 | 50 to 250 |  |  |  |  |  |  |  |
| Nc1nn(-c2cc(Cl)c(Oc3n[nH]c(=O)cc3-c3ccc4ccccc4c3)c(Cl)c2)c(=O)[nH]c1=O [Compound 67-A, 6-amino-2-(3,5-dichloro-4-((4-(naphthalen-2-yl)-6-oxo-1,6-dihydropyridazin-3-yl)oxy)phenyl)-1,2,4-triazine-3,5(2H,4H)-dione] | > 25000 | < 50 | < 50 | < 50 | 1000 to 10000 |  |  |  |  |  |  |  |  |
| CC(c1cc(Oc2c(Cl)cc(-n3nc(N)c(=O)[nH]c3=O)cc2Cl)n[nH]c1=O)C1CC(F)(F)C1 (single isomer, unassigned) [Compound 61-B, 6-amino-2-[3,5-dichloro-4-([5-[1-(3,3-difluorocyclobutyl)ethyl]-6-oxo-1H-pyridazin-3-yl]oxy)phenyl]-4H-1,2,4-tri-azine-3,5-dione] | 1000 to 25000 |  |  |  | 250 to 1000 | 250 to 1000 |  |  |  |  | C (Emax<50%) | A (Emax≥75%) | C (Emax<50%) |
| Nc1nn(-c2cc(Cl)c(Oc3ccc4c(c3)C3(CCCC3)C(=O)N4)c(Cl)c2)c(=O)[nH]c1=O [Compound 83] | < 50 | 50 to 75 | 50 to 75 | > 75 | < 50 | < 50 |  |  |  |  |  |  |  |
| CCC(C)c1cc(Oc2c(Cl)cc(-n3nc(N)c(=O)[nH]c3=O)cc2Cl)n[nH]c1=O (stereo not drawn) [Compound 39-B] | 50 to 250 |  |  |  | < 50 | < 50 |  |  |  |  | B (Emax≥50%, and <75%) | A (Emax≥75%) | A (Emax≥75%) |
